# Results published in patent publication USRE48267E1, “Variants of C-type natriuretic peptide” (priority 2009, dated 2020).
# Where a SMILES comes first, the peptide text is derived from it. Bridges are numbered along the chain shown (N, C = ends). Where no end group is shown, it is not given here. [ ]: non-standard residue; d: D form. Cit = NC(=O)NCCC[C@H](N)C(=O)O
# What was measured:
# [1] = target: Recombinant human NEP (Homo sapiens, UniProt P08473); test: in vitro NEP cleavage assay (disappearance of non-cleaved CNP variant)
# Method: To determine the effects of amino acid substitutions, amino acid extensions, backbone modifications, side chain modifications and PEGylation on the susceptibility of CNP variants to neutral endopeptidase (NEP) cleavage, peptide cleavage assays were carried out using an in vitro assay that monitored disappearance of the non-cleaved CNP variant.
# Recombinant human NEP (1 ug/mL final concentration) was added to 100 uM CNP variant diluted in 0.1 M Tris, pH 7. The reaction mixture was incubated at 37° C. for various periods of time, and the reaction was quenched with EDTA (10 mM final) followed by heat denaturation. The reaction mixture was reduced and then the reaction products were analyzed using HPLC and mass spectroscopy. The half-life of the CNP variant was calculated based on the disappearance of intact CNP variant over time.
# [2] = target: T1, NPR-B (Mus musculus, UniProt Q6VVW5); test: stimulation of cGMP production in NIH3T3 cells; format: cell-based, murine; settings: for cGMP Response rel. to 1 uM CNP22, 10 nM: NIH3T3 cells exposed to 10 nM peptide; for cGMP Response rel. to 1 uM CNP22, 10 nM / cGMP Response rel. to 1 uM CNP22, 1 uM: normalized to cell number and cGMP production in the presence of 1 uM wtCNP22; for cGMP Response rel. to 1 uM CNP22, 1 uM: NIH3T3 cells exposed to 1 uM peptide
# T1 construct: Murine NIH3T3 cells express endogenously the CNP signaling receptor, NPR-B; endogenous in cells; host or cells: NIH3T3
# T1 sequence (Q6VVW5 17-1047): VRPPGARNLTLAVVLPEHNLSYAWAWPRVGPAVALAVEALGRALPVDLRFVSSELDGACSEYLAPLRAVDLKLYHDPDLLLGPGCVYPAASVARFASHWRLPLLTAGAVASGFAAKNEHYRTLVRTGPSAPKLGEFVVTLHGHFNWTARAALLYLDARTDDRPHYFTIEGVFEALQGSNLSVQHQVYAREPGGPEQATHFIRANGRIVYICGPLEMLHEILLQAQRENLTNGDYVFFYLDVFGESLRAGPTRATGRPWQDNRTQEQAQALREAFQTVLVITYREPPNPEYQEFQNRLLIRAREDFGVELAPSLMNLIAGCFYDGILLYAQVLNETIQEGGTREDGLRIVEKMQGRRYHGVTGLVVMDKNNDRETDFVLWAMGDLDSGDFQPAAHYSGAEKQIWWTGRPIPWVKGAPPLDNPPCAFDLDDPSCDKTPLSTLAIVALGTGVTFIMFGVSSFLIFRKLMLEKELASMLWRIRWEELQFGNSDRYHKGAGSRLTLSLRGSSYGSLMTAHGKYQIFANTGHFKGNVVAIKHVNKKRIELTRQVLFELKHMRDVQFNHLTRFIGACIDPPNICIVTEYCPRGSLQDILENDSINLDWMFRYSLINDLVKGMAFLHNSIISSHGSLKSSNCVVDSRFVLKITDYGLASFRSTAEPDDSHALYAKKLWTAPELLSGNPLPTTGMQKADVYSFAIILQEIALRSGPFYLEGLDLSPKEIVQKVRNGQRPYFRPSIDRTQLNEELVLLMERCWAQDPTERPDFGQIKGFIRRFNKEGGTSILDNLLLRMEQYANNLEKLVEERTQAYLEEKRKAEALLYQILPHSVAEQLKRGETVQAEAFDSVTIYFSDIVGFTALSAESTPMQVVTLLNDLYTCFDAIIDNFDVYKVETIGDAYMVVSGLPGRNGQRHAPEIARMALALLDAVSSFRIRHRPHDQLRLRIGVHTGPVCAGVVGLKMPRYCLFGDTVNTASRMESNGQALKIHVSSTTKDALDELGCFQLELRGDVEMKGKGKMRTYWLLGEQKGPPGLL
# Method: To determine the functional activity of CNP variants, the production of cGMP was measured in NIH3T3 cells exposed to the CNP variants. Murine NIH3T3 cells express endogenously the CNP signaling receptor, NPR-B, which shares 98% protein sequence identity with human NPR-B. NIH3T3 cells were cultured in high glucose Dulbecco's Modified Eagle Medium supplemented with 10% fetal calf serum and antibiotics at 37° C. with 5% CO2). Twenty four to 48 hours prior to signaling, cells were passaged to 12-well plates with a density of 2-5×10^5 cells per well at the time of the assay. CNP variants were resuspended in 1 mM HCl to a stock concentration of 1 mg/mL (455 uM for wtCNP22) and subsequently diluted to a 30 uM working stock solution with phosphate-buffered saline (PBS). Ten-fold serial dilutions were prepared in phosphate-buffered saline. Culture medium was removed from the cells and replaced with 0.4 mL PBS/Dulbecco's modified Eagle medium (50/50, v/v) containing 0.75 mM isobutylmethylxanine. Plates were incubated at 37° C., 5% CO2 for 15 minutes before addition of 0.2 mL CNP variant in PBS and continued incubation at 37° C. for 15 minutes. Reactions were stopped by the addition of 0.2 mL lysis buffer supplied with the CatchPoint cGMP assay kit (Molecular Devices), and cGMP production was determined with the CatchPoint cGMP Assay (Molecular Devices). All stimulation experiments were performed in duplicate.
# Tables 1-4 summarize the ability of CNP variants having backbone or side chain modifications, amino acid substitutions, N-terminal amino acid extensions, and/or N-terminal PEGylation, respectively, to stimulate cGMP production in NIH3T3 cells. In all four tables, the values for cGMP production in NIH3T3 cells exposed to 10 nM or 1 uM CNP variant are normalized to cell number and cGMP production in the presence of 1 uM wtCNP22.
# Chain of Recombinant human NEP (P08473 whole entry): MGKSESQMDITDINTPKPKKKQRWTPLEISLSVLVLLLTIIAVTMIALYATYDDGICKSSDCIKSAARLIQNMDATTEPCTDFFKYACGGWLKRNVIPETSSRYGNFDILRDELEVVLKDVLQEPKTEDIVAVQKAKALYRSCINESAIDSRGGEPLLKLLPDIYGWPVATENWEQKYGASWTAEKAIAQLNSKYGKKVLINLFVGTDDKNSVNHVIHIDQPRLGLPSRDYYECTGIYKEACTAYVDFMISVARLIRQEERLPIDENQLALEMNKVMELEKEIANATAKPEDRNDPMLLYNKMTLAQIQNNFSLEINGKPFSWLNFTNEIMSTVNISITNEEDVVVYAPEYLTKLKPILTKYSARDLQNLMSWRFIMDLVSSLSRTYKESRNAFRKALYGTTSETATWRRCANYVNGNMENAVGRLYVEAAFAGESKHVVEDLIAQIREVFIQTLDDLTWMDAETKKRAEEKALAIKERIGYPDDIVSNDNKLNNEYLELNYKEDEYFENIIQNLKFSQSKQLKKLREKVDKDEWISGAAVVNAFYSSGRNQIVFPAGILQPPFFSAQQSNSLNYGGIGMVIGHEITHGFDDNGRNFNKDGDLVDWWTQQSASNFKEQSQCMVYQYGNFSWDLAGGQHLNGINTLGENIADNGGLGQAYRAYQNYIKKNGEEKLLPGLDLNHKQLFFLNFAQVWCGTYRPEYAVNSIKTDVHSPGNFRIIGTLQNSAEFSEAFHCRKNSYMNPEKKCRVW
Compound,"NEP Cleavage (t1/2, min) ([1]; 100 uM peptide, 1 ug/mL NEP, 0.1 M Tris pH 7, 37° C., adjusted t1/2, CNP22 normalized to 80 min)","resistance to NEP cleavage (in words) ([1]; in vitro NEP assay, assay period 160 minutes)","cGMP Response rel. to 1 uM CNP22, 10 nM [2]","cGMP Response rel. to 1 uM CNP22, 1 uM [2]",NPR-B stimulation activity / cGMP production compared with wtCNP22 (in words) ([2]; NIH3T3 cells)
"CC[C@@H](C)[C@H]1NC(=O)[C@@H](CCCNC(=N)N)NC(=O)[C@@H](CC(=O)O)NC(=O)[C@@H](CC(C)C)NC(=O)[C@@H](CCCCN)NC(=O)[C@@H](CC(C)C)NC(=O)CNC(=O)[C@@H](Cc2ccccc2)NC(=O)[C@H](NC(=O)CNC(=O)[C@@H](CCCCN)NC(=O)[C@@H](CO)NC(=O)[C@@H](CC(C)C)NC(=O)CN)CSSC[C@H](C(=O)O)NC(=O)CNC(=O)[C@@H](CC(C)C)NC(=O)CNC(=O)[C@@H](CO)NC(=O)[C@@H](CCSC)NC(=O)[C@@H](CO)NC(=O)CNC1=O [Analog N, D-CNP22 (all D-amino acids)]",>>160 min,greatest resistance to NEP cleavage,2,1,–
"CC[C@H](C)[C@@H]1NC(=O)[C@H](CCCNC(=N)N)NC(=O)[C@H](CC(=O)O)NC(=O)[C@H](CC(C)C)NC(=O)[C@H](CCCCN)NC(=O)[C@H](CC(C)C)NC(=O)CNC(=O)[C@H](Cc2ccccc2)NC(=O)[C@@H](NC(=O)CNC(=O)[C@H](CCCNC(=N)N)NC(=O)[C@H](CO)NC(=O)[C@H](CC(C)C)NC(=O)CN)CSSC[C@@H](C(=O)O)NC(=O)CNC(=O)[C@H](CC(C)C)NC(=O)CNC(=O)[C@H](CO)NC(=O)[C@H](CCSC)NC(=O)[C@H](CO)NC(=O)[C@H](CCCNC(N)=O)NC1=O [Analog AF, CNP22, K4R, G15Cit] (H-GLSRGCFGLKLDRI[Cit]SMSGLGC-OH; disulfide 6-22)",–,–,1.4,2,–
SPKMVQGSG-CNP17-KVLRRH (SPKMVQGSGCFGLKLDRIGSMSGLGCKVLRRH; disulfide 10-26 (inferred); ends not checked) [Analog CD],–,–,–,–,comparable NPR-B stimulation activity as wtCNP22
CC[C@H](C)[C@@H]1NC(=O)[C@H](CCCNC(=N)N)NC(=O)[C@H](CC(=O)O)NC(=O)[C@H](CC(C)C)NC(=O)[C@H](CCCCN)NC(=O)[C@H](CC(C)C)NC(=O)CNC(=O)[C@H](Cc2ccccc2)NC(=O)[C@@H](NC(=O)CNC(=O)[C@H](CCCCN)NC(=O)[C@H](CO)NC(=O)[C@H](CC(C)C)NC(=O)CNC(=O)[C@H](CCC(N)=O)NC(=O)[C@H](CCC(N)=O)NC(=O)[C@H](CC(N)=O)NC(=O)[C@H](C)NC(=O)CNC(=O)[C@H](Cc2c[nH]cn2)NC(=O)[C@@H](NC(=O)[C@H](CC(=O)O)NC(=O)[C@H](Cc2c[nH]cn2)NC(=O)[C@H](CCC(=O)O)NC(=O)[C@H](Cc2c[nH]cn2)NC(=O)[C@@H]2CCCN2C(=O)[C@H](Cc2c[nH]cn2)NC(=O)[C@H](Cc2c[nH]cn2)NC(=O)[C@H](C)NC(=O)CN)[C@@H](C)O)CSSC[C@@H](C(=O)O)NC(=O)CNC(=O)[C@H](CC(C)C)NC(=O)CNC(=O)[C@H](CO)NC(=O)[C@H](CCSC)NC(=O)[C@H](CO)NC(=O)CNC1=O [Analog CR] (H-GAHHPHEHDTHGANQQGLSKGCFGLKLDRIGSMSGLGC-OH; disulfide 22-38; N-terminus and C-terminus assumed),–,–,14 ± 5,77 ± 12,–
CC[C@H](C)[C@@H]1NC(=O)[C@H](CCCNC(=N)N)NC(=O)[C@H](CC(=O)O)NC(=O)[C@H](CC(C)C)NC(=O)[C@H](CCCCN)NC(=O)[C@H](CC(C)C)NC(=O)CNC(=O)[C@H](Cc2ccccc2)NC(=O)[C@@H](NC(=O)CNC(=O)[C@H](CCCCN)NC(=O)[C@H](CO)NC(=O)[C@H](CC(C)C)NC(=O)CNC(=O)[C@H](CCC(N)=O)NC(=O)[C@H](CCC(N)=O)NC(=O)[C@H](CC(N)=O)NC(=O)[C@H](C)NC(=O)CNC(=O)[C@H](Cc2c[nH]cn2)NC(=O)[C@@H]2CCCN2C(=O)[C@H](Cc2c[nH]cn2)NC(=O)[C@H](CCC(N)=O)NC(=O)[C@H](CCC(=O)O)NC(=O)[C@H](Cc2c[nH]cn2)NC(=O)[C@H](CO)NC(=O)[C@H](Cc2c[nH]cn2)NC(=O)[C@H](Cc2c[nH]cn2)NC(=O)CN)CSSC[C@@H](C(=O)O)NC(=O)CNC(=O)[C@H](CC(C)C)NC(=O)CNC(=O)[C@H](CO)NC(=O)[C@H](CCSC)NC(=O)[C@H](CO)NC(=O)CNC1=O [Analog CQ] (H-GHHSHEQHPHGANQQGLSKGCFGLKLDRIGSMSGLGC-OH; disulfide 21-37; N-terminus and C-terminus assumed),–,–,16,95,–
"CC[C@H](C)[C@@H]1NC(=O)[C@H](CCCNC(=N)N)NC(=O)[C@H](CC(=O)O)NC(=O)[C@H](CC(C)C)NC(=O)[C@H](CCCCN)NC(=O)[C@H](CC(C)C)NC(=O)CNC(=O)[C@H](Cc2ccccc2)NC(=O)[C@@H](NC(=O)CNC(=O)[C@H](CCCNC(=N)N)NC(=O)[C@H](CO)NC(=O)[C@H](CC(C)C)NC(=O)CN)CSSC[C@@H](C(=O)O)NC(=O)CNC(=O)[C@H](CC(C)C)NC(=O)CNC(=O)[C@H](CO)NC(=O)[C@H](CCSC)NC(=O)[C@H](CO)NC(=O)[C@H](CCCNC(=N)N)NC1=O [Analog AE, CNP22, K4R, G15R] (H-GLSRGCFGLKLDRIRSMSGLGC-OH; disulfide 6-22)",–,–,0.3,0.3,–
"CC[C@H](C)[C@@H]1NC(=O)[C@H](CCCNC(=N)N)NC(=O)[C@H](CC(=O)O)NC(=O)[C@H](CC(C)C)NC(=O)[C@H](CCCCN)NC(=O)[C@H](CC(C)C)NC(=O)CNC(=O)[C@H](Cc2ccccc2)NC(=O)[C@@H](NC(=O)CNC(=O)[C@H](CCCNC(=N)N)NC(=O)[C@H](CO)NC(=O)[C@H](CC(C)C)NC(=O)CN)CSSC[C@@H](C(=O)O)NC(=O)CNC(=O)[C@H](CC(C)C)NC(=O)CNC(=O)[C@H](CO)NC(=O)[C@H](C(C)C)NC(=O)[C@H](CO)NC(=O)CNC1=O [Analog AG, CNP22, K4R, M17V] (H-GLSRGCFGLKLDRIGSVSGLGC-OH; disulfide 6-22)",–,–,10,65,–
